From PMC4784888, “Activity Based High-Throughput Screening for Novel O-GlcNAc Transferase Substrates Using a Dynamic Peptide Microarray” (PLoS ONE, 2016)

How the values were obtained:
Assay type in all cases: biochemical, human
nc-OGT [1] = test: O-GlcNAcylation on kinase substrate peptide microarray, nc-OGT; conditions: bacterial lysate containing nc-OGT (7 μg/μL), 1 mM UDP-GlcNAc, 50 mM Tris-HCl pH 7.5, 30°C, FITC antibody fluorescence, corrected for signal without UDP-GlcNAc
Description: (§1) Plasmids encoding s-OGT, m-OGT, and nc-OGT are generous gifts from John A. Hanover (National Institute of Health, USA). OGT overexpression was carried out as previously described. All the plasmids were transformed into E.coli BL21 (DE3) competent cells to produce a cell lysate containing OGT for use or for further purification. Briefly, inoculated a single colony into 50 ml of LB broth media containing 50 μg/ml ampicillin and cells were grown overnight at 37°C with vigorous shaking. 50 mL of the start culture was added into 1L LB broth media containing 50 μg/mL ampicillin and it was incubated with shaking at 200 rpm at 37°C until A600 reached 0.4–0.6. After the culture was cooled to room temperature, 0.5 mM IPTG was added into the culture to induce protein expression. After 16 hours, the cells were collected by centrifugation for 10 min at 4000 RPM at 4°C. The pellets were lysed in lysis buffer containing 20 mM Tris-HCl, pH 7.5, 1 mg/mL lysome, 0.1% triton x-100 and complete mini EDTA-free protease inhibitor cocktail on ice for 10 min and the lysate was sonicated until the DNA was completely sheared. After centrifugation for 10 min at 12000 rpm at 4°C, the supernatant was carefully transferred into a clean tube and was ready for the array assay or for further purification. Protein expression was determined by coomassie blue staining and western blotting using an anti-OGT antibody.
(§2) Peptide O-GlcNAcylation was assessed using PamChip 4 microarray chips with a PamStation 12 instrument (Pamgene international, The Netherlands). The OGT enzyme reaction was prepared essentially as described[26] with minor modifications. Briefly, before addition of the enzyme reaction, the microarray was blocked with blocking buffer (1% BSA in TBS). After 30 cycles (2 cycles/min) blocking, the blocking buffer was aspirated and the microarray was incubated with 40 μL of the enzyme reaction containing OGT (lysate or purified), OGT reaction buffer (50 mM Tris—HCl, pH 7.5;1 mM DTT;12.5 mM MgCl2), a 1:1 pre-incubated mixture of anti-O-GlcNAc and FITC conjugated secondary antibody, and the sugar donor UDP-GlcNAc or water as a control for 480 cycles (2 cycles/min) at 30°C. The microarray was run in parallel by pumping the reaction up and down through the porous membrane at every cycle and a tiff image was obtained at every 20 cycles by a CCD camera inside the PamStation. O-GlcNAcylation of each peptide was detected by a fluorescent signal which was produced by an FITC conjugated antibody bound to the O-GlcNAc moiety on the peptide.
(§3) Image analysis was performed using BioNavigator 6 software (Pamgene international, The Netherlands). Briefly, each image was quantified by automated array grid finding and subsequent quantification of signal and local background for each individual spot. In this work, the signal median-minus-background value was used as the quantitative parameter for the O-GlcNAcylation of the peptide.
(§4) Dynamic peptide microarray (PamChip) technology has been successfully and widely used for kinase activities profiling in the last decade. In the present work, we describe, for the first time, the utility of this peptide microarray format for the identification of human OGT activity. Due to the fact that O-GlcNAcylation and phosphorylation may occur at the same or proximal amino acids on the same protein [9], a peptide microarray of 144 peptides derived from different kinase substrates (S1 Appendix) was selected for an initial test. […] O-GlcNAcylation of peptides in each individual spot was detected by a fluorescent signal produced by the FITC labelled antibody recognizing the O-GlcNAcylated amino acids of converted peptides. Kinetic activity was measured through scanning the signal at regular intervals.
(§5) Fig 2 Identification of human OGT substrates from a kinase substrate and nuclear hormone receptor interaction peptide microarray. […]

s-OGT [2] = test: O-GlcNAcylation on kinase substrate peptide microarray, s-OGT; conditions: bacterial lysate containing s-OGT (7 μg/μL), 1 mM UDP-GlcNAc, 50 mM Tris-HCl pH 7.5, 30°C, FITC antibody fluorescence, corrected for signal without UDP-GlcNAc
Description: as §1, §2, §3, §4, §5

m-OGT [3] = test: O-GlcNAcylation on kinase substrate peptide microarray, m-OGT; conditions: bacterial lysate containing m-OGT (7 μg/μL), 1 mM UDP-GlcNAc, 50 mM Tris-HCl pH 7.5, 30°C, FITC antibody fluorescence, corrected for signal without UDP-GlcNAc
Description: as §1, §2, §3, §4, §5

nc-OGT [4] = test: O-GlcNAcylation on nuclear hormone receptor interaction peptide microarray, nc-OGT; conditions: bacterial lysate containing nc-OGT (7 μg/μL), 1 mM UDP-GlcNAc, 50 mM Tris-HCl pH 7.5, 30°C, FITC antibody fluorescence, corrected for signal without UDP-GlcNAc
Description: as §1, §2, §3, §4, §5

s-OGT [5] = test: O-GlcNAcylation on nuclear hormone receptor interaction peptide microarray, s-OGT; conditions: bacterial lysate containing s-OGT (7 μg/μL), 1 mM UDP-GlcNAc, 50 mM Tris-HCl pH 7.5, 30°C, FITC antibody fluorescence, corrected for signal without UDP-GlcNAc
Description: as §1, §2, §3, §4, §5

m-OGT [6] = test: O-GlcNAcylation on nuclear hormone receptor interaction peptide microarray, m-OGT; conditions: bacterial lysate containing m-OGT (7 μg/μL), 1 mM UDP-GlcNAc, 50 mM Tris-HCl pH 7.5, 30°C, FITC antibody fluorescence, corrected for signal without UDP-GlcNAc
Description: as §1, §2, §3, §4, §5

[7] = tested on: OGT (s-OGT, m-OGT, nc-OGT); test: O-GlcNAcylation on nuclear hormone receptor interaction peptide microarray, three isoforms taken together; conditions: for O-GlcNAcylation by three isoforms: nuclear hormone receptor interaction microarray, bacterial lysates s-, m-, nc-OGT, 1 mM UDP-GlcNAc; for identification in microarray assay: nuclear receptor interaction peptide microarray
Description: as §1, §2, §3
as §4, with “activity.” for “activity. Due to the fact that O-GlcNAcylation and phosphorylation may occur at the same or proximal amino acids on the same protein [9], a peptide microarray of 144 peptides derived from different kinase substrates (S1 Appendix) was selected for an initial test.”, “intervals. […]” for “intervals.”

Sequence | OGT isoforms activity, nc (nc-OGT [1]) | OGT isoforms activity, s (s-OGT [2]) | OGT isoforms activity, m (m-OGT [3]) | OGT isoforms activity, nc (nc-OGT [4]) | OGT isoforms activity, s (s-OGT [5]) | OGT isoforms activity, m (m-OGT [6]) | O-GlcNAcylation by three isoforms [7] | identification in microarray assay [7]
DNTPHTPTPFKNA [MYBB_513_525, kinase substrate microarray peptide …] | N (otherwise negative (N)) | P (Signal greater than 5% of the highest signal was defined as positive (P)) | N (otherwise negative (N)) |  |  |  |  | 
DSVRKGKQDSTLLASLLQSFSSR [NRIP1_121_143_P124R] |  |  |  | N (otherwise negative) | N (otherwise negative) | P (Signal greater than 5% of the highest signal was defined as positive) |  | 
EGLRSRSTRMSTVS [KIF2C_105_118_S106G, kinase substrate microarray peptide …] | N (otherwise negative (N)) | N (otherwise negative (N)) | P (Signal greater than 5% of the highest signal was defined as positive (P)) |  |  |  |  | 
ERSKTVTSFYNQS [BCKD_45_57, kinase substrate microarray peptide …] | P (Signal greater than 5% of the highest signal was defined as positive (P)) | N (otherwise negative (N)) | N (otherwise negative (N)) |  |  |  |  | 
GLGRSITSPTTLY [RBL-2_655_667, kinase substrate microarray peptide …] | P (Signal greater than 5% of the highest signal was defined as positive (P)) | P (Signal greater than 5% of the highest signal was defined as positive (P)) | P (Signal greater than 5% of the highest signal was defined as positive (P)) |  |  |  |  | 
GQRNISTLSTIQKLPRLLVASSS [WIPI1_313_335_C318S] |  |  |  | P (Signal greater than 5% of the highest signal was defined as positive) | P (Signal greater than 5% of the highest signal was defined as positive) | P (Signal greater than 5% of the highest signal was defined as positive) | O-GlcNAcylation by three isoforms was observed | 
GSDVHQDSIVLTYLEGLLMHQAA [NRIP1_8_30] |  |  |  | N (otherwise negative) | N (otherwise negative) | P (Signal greater than 5% of the highest signal was defined as positive) |  | 
GTGGLSAVSSGPRLRLLLLESVS [PELP1_20_42] |  |  |  |  |  |  |  | not identified in our microarray assay
HGEDFSKVSQNPILTSLLQITGNG [MED1_591_614] |  |  |  | P (Signal greater than 5% of the highest signal was defined as positive) | N (otherwise negative) | N (otherwise negative) |  | 
HGSQNRPLLRNSLDDLLGPPSNA [NCOA3_MOUSE_1029_1051] |  |  |  | P (Signal greater than 5% of the highest signal was defined as positive) | N (otherwise negative) | N (otherwise negative) |  | 
KWTKRTLSETSSS [KCNB1_489_501, kinase substrate microarray peptide …] | P (Signal greater than 5% of the highest signal was defined as positive (P)) | N (otherwise negative (N)) | N (otherwise negative (N)) |  |  |  |  | 
LVSPAMREAPTSLSQLLDNSGAP [NCOA6_1479_1501] |  |  |  | P (Signal greater than 5% of the highest signal was defined as positive) | P (Signal greater than 5% of the highest signal was defined as positive) | P (Signal greater than 5% of the highest signal was defined as positive) | O-GlcNAcylation by three isoforms was observed | 
PATSPKPSVASSQLALLLSSEAH [NRIP1_253_275_C263S] |  |  |  | P (Signal greater than 5% of the highest signal was defined as positive) | N (otherwise negative) | P (Signal greater than 5% of the highest signal was defined as positive) |  | 
QFPLPKNLLAKVIQIATSSSTA [DHX30_241_262] |  |  |  | N (otherwise negative) | N (otherwise negative) | P (Signal greater than 5% of the highest signal was defined as positive) |  | 
QVEFRRLSISAES [KPB1_1011_1023, kinase substrate microarray peptide …] | N (otherwise negative (N)) | P (Signal greater than 5% of the highest signal was defined as positive (P)) | N (otherwise negative (N)) |  |  |  |  | 
SDGDSKYSQTSHKLVQLLTTTAEQ [NCOA1_620_643] |  |  |  |  |  |  |  | not identified in our microarray assay
SDTLPEVSAIPISLDGLLFPRPS [PRGR_42_64_C64S] |  |  |  | N (otherwise negative) | P (Signal greater than 5% of the highest signal was defined as positive) | P (Signal greater than 5% of the highest signal was defined as positive) |  | 
SPSQGAASRPAILYALLSSSLKA [NR0B2_9_31_C9S/C11S] |  |  |  | N (otherwise negative) | N (otherwise negative) | P (Signal greater than 5% of the highest signal was defined as positive) |  | 
SQSTFNNPRPGQLGRLLPNQNLP [NCOA2_866_888] |  |  |  | N (otherwise negative) | N (otherwise negative) | P (Signal greater than 5% of the highest signal was defined as positive) |  | 
TTSPTAATTQNPVLSKLLMADQD [LCOR_40_62] |  |  |  | N (otherwise negative) | N (otherwise negative) | P (Signal greater than 5% of the highest signal was defined as positive) |  | 
TVAASPAASGAPTLSRLLEAGPT [BRD8_254_276] |  |  |  | P (Signal greater than 5% of the highest signal was defined as positive) | P (Signal greater than 5% of the highest signal was defined as positive) | P (Signal greater than 5% of the highest signal was defined as positive) | O-GlcNAcylation by three isoforms was observed | 
